Paper PMC7804203, “Targeting adaptor protein SLP76 of RAGE as a therapeutic approach for lethal sepsis” (Nature Communications, 2021)
Values joined by “and” are separate entries in the source; they are usually repeats but may differ in a detail not shown here. Equal values may be shown once.

Columns and labels:
Type in all cases: cell-based
[1] = tested on: ERK1/2 phosphorylation, RAW264.7 cells; assay: Western blot, AGE-induced ERK1/2 activation after TAT-fused peptides; conditions: AGEs+, relative to Ctrl without AGEs = 1
Experimental: (§1) Cultured cells in 6-well plates were harvested, washed twice with PBS, and lysed for 30 min on ice in 150 μl of cell lysis buffer (#9803) from CST (Boston, MA, USA) containing 1 mM PMSF and 2 μg/ml leupeptin. Proteins were quantified with the BCA method. Protein samples were resolved by 10% SDS-PAGE, transferred to a nitrocellulose (NC) membrane (#GE10600002), and blocked for 1 h with 5% nonfat milk in Tris-buffered saline containing 0.1% Tween 20 (TBST) at room temperature. After incubation with a specific primary antibody overnight at 4 °C, the membrane was washed with TBST three times. Then, the membrane was incubated with a secondary antibody for 1 h at room temperature. Enhanced chemiluminescence (ECL) (#32109, Thermo Fisher Scientific, Waltham, MA, USA) was used to visualize the protein bands, and images were acquired in a ChemiDoc™ Imaging System (Bio-Rad, Hercules, CA, USA). Each experiment was repeated at least three times.

[2] = tested on: JNKs phosphorylation, RAW264.7 cells; assay: Western blot, JNK phosphorylation in RAW264.7 cells treated with AGEs; conditions: AGEs 100 μg/ml; for JNK phosphorylation: Supplementary Fig. 4, single runs Exp1-Exp3
Experimental: as §1

[3] = tested on: ERK1/2 phosphorylation, HEK293 cells; assay: Western blot, ERK1/2 phosphorylation in transfected HEK293 cells treated with AGEs; conditions: Fig. 4c, AGEs 100 μg/ml, 15 min, single runs Exp1-Exp3
Experimental: (§2) HEK293 cells (3 × 10^5) were cultured to a confluence of 80–90% in a 60 mm dish. Then, cells were transfected with 2 μg of total DNA by using 6 μl GeneJammer reagent (#204130, Agilent, Santa Clara, CA, USA) mixed with Opti-MEM (200 μl final volume) and were then incubated for 5 min at room temperature. RAW264.7 cells (1 × 10^5) were transfected with control siRNA, siRNA targeting AGER or siRNA targeting SLP76 using HiPerFect reagent (#301705, Qiagen, Hilden, Germany). SiRNA diluted in HiPerFect transfection reagent was premixed with Opti-MEM medium at room temperature for 5 min and incubated with cells in a 24-well plate for 48 h.
as §1

[4] = tested on: p38 MAPK phosphorylation, HEK293 cells; assay: Western blot, p38 MAPK phosphorylation in transfected HEK293 cells treated with AGEs; conditions: Fig. 4b, AGEs 100 μg/ml, 15 min, single runs Exp1-Exp3
Experimental: as §2, §1

[5] = tested on: p38 MAPK phosphorylation, RAW264.7 cells; assay: Western blot, p38 MAPK phosphorylation in RAW264.7 cells treated with AGEs; conditions: 15 min (P < 0.05)
Experimental: as §1

[6] = tested on: ERK1/2 phosphorylation, RAW264.7 cells; assay: Western blot, ERK1/2 phosphorylation in RAW264.7 cells treated with AGEs; conditions: 15 min (P < 0.05)
Experimental: as §1

[7] = tested on: IKKα/β phosphorylation, RAW264.7 cells; assay: Western blot, AGE-induced IKKα/β activation after TAT-fused peptides; conditions: AGEs+, relative to Ctrl without AGEs = 1
Experimental: as §1

[8] = tested on: p38 MAPK phosphorylation, RAW264.7 cells; assay: Western blot, AGE-induced p38 MAPK activation after TAT-fused peptides; conditions: AGEs+, relative to Ctrl without AGEs = 1
Experimental: as §1

[9] = tested on: interaction between RAGE and SLP76 in HEK293 cells; assay: Co-IP of Flag-SLP76 with HA-RAGE (HA-tag antibody) in HEK293 cells treated with AGEs; conditions: Fig. 1c–e
Experimental: as §2
After transfection for 24 h, HEK293 cells were treated with AGEs at the indicated times and doses. Then, cells were collected and lysed with lysis buffer, and protein was quantitated with a bicinchoninic acid (BCA) kit (#23227, Thermo Fisher Scientific, Waltham, MA, USA). Total input protein (500 µg) was incubated with anti-FLAG M2 beads or anti-HA affinity gel overnight at 4 °C. After brief centrifugation, samples were washed five times with lysis buffer containing 0.1% Tween 20. Samples were then resolved by SDS-PAGE and subjected to western blotting with a specific antibody against the HA or Flag tag.

[10] = tested on: IKKα/β phosphorylation, HEK293 cells; assay: Western blot, IKKα/β phosphorylation in transfected HEK293 cells treated with AGEs; conditions: Fig. 4d, AGEs 100 μg/ml, 15 min, single runs Exp1-Exp3
Experimental: as §2, §1

With “AGEs: AGEs-BSA (#2221-10) purchased from Biovision; advanced glycation end products, RAGE ligand” the “Relative ERK1/2 phosphorylation, Supplementary figure 11d” value (“Relative ERK1/2 phosphorylation” for short) ([1]; Exp1) was 3.946, the “Relative ERK1/2 phosphorylation” value ([1]; Exp2) was 5.325 and the “Relative ERK1/2 phosphorylation” value ([1]; Exp3) was 6.025. The “Phosphorylation of JNKs” value ([2]; 0-240 min, n=3) was “no significant difference between groups”, the JNK phosphorylation ([2]; 5 min) was 0.9831 and 1.298 and 1.325 and the JNK phosphorylation ([2]; 15 min) was 1.062 and 0.8245 and 0.7215. For the same substance, the JNK phosphorylation ([2]; 30 min) was 1.133 and 1.03 and 0.8721, the JNK phosphorylation ([2]; 60 min) was 1.061 and 0.95 and 0.8845 and the JNK phosphorylation ([2]; 90 min) was 1.254 and 1.05 and 0.7684. For the same substance, the JNK phosphorylation ([2]; 120 min) was 1.217 and 0.98 and 0.8649, the JNK phosphorylation ([2]; 240 min) was 1.277 and 0.91 and 0.7954 and the “phosphorylated ERK1/2” value ([3]; RAGE overexpressed) was 4.032 and 4.674 and 4.165. The “phosphorylated ERK1/2” value ([3]; RAGE+SLP76 overexpressed) was 5.962 and 6.497 and 6.322, the “phosphorylated ERK1/2” value ([3]; SLP76 overexpressed) was 3.146 and 2.87 and 3.315 and the “phosphorylated ERK1/2” value ([3]; control vector) was 3.0116 and 3.25 and 2.795. The “phosphorylated p38 MAPK” value ([4]; RAGE overexpressed) was 1.6247 and 1.965 and 1.83, the “phosphorylated p38 MAPK” value ([4]; RAGE+SLP76 overexpressed) was 2.026 and 2.548 and 2.612 and the “phosphorylated p38 MAPK” value ([4]; SLP76 overexpressed) was 1.3753 and 1.591 and 1.725. For the same substance, the “phosphorylated p38 MAPK” value ([4]; control vector) was 1.2576 and 1.45 and 1.104, the “Phosphorylation of p38 MAPK” value [5] was “increased significantly” and the “Phosphorylation of ERK1/2” value [6] was “increased significantly”. For the same substance, the “Relative IKKα/β phosphorylation, Supplementary figure 11e” value (“Relative IKKα/β phosphorylation” below) ([7]; Exp1) was 3.559, the “Relative IKKα/β phosphorylation” value ([7]; Exp2) was 4.547 and the “Relative IKKα/β phosphorylation” value ([7]; Exp3) was 6.152. For the same substance, the “Relative p38 MAPK phosphorylation, Supplementary figure 11c” value (shortened to “Relative p38 MAPK phosphorylation”) ([8]; Exp1) was 2.6013, the “Relative p38 MAPK phosphorylation” value ([8]; Exp2) was 2.501 and the “Relative p38 MAPK phosphorylation” value ([8]; Exp3) was 3.172. For the same substance, the “RAGE/SLP76 binding after exposure to AGEs” value [9] was “dose- and time-dependent”, the “phosphorylated IKKα/β” value ([10]; RAGE overexpressed) was 12.7634 and 9.791 and 10.05 and the “phosphorylated IKKα/β” value ([10]; RAGE+SLP76 overexpressed) was 21.1403 and 18.74 and 17.6458. The “phosphorylated IKKα/β” value ([10]; SLP76 overexpressed) was 5.321 and 6.4 and 5.551 and the “phosphorylated IKKα/β” value ([10]; control vector) was 8.805 and 7.3 and 6.5457.
